Experimental data published in patent publication US20040235906A1, “Substituted amine derivatives and their use as monoamine neurotransmitter re-up-take inhibitors” (priority 2001, published 2004).
Counter-ions that a name gives are not always drawn. Like-named read-outs stand apart in the source and are kept apart here.

What was measured:
[1] = target: T1, reuptake of dopamine(DA) in synaptosomes (Rattus norvegicus, UniProt P23977); assay: Inhibition of dopamine (DA) reuptake in synaptosomes; type: biochemical
T1 construct: in synaptosomes as described in WO 97/16451; from tissue
Procedure: (§1) A number of compounds were tested for their ability to inhibit the reuptake of the monoamine neurotransmitters dopamine(DA) noradrenaline(NA) and serotonine(5-HT) in synaptosomes as described in WO 97/16451.
(§2) The test values are given as IC50 (the concentration (μM) of the test substance which inhibits the specific binding of ^3H-DA, ^3H-NA, or ^3H-5-HT by 50%).

[2] = target: T2, reuptake of serotonine(5-HT) in synaptosomes (Rattus norvegicus, UniProt P31652); assay: Inhibition of serotonine (5-HT) reuptake in synaptosomes; type: biochemical
T2 construct: in synaptosomes as described in WO 97/16451; from tissue
Procedure: as §1, §2

[3] = synaptosomes, 3H-DA, read-out: DA-uptake IC50

T1 sequence (P23977 whole entry): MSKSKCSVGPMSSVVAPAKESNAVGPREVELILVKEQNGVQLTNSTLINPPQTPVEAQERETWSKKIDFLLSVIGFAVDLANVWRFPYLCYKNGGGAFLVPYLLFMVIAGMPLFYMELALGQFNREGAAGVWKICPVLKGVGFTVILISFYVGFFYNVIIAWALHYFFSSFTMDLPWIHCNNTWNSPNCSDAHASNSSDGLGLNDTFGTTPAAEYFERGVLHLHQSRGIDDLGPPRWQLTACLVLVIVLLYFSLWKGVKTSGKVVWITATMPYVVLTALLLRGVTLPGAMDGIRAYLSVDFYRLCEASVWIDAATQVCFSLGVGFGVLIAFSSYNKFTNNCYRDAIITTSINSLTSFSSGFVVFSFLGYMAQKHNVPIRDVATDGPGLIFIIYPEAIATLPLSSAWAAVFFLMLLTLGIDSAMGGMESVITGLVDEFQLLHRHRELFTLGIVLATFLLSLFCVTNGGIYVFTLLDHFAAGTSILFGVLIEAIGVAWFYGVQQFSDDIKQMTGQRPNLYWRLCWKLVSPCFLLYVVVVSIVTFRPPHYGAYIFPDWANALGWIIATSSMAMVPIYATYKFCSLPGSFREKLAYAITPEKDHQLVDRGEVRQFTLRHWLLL
T2 sequence (P31652 whole entry): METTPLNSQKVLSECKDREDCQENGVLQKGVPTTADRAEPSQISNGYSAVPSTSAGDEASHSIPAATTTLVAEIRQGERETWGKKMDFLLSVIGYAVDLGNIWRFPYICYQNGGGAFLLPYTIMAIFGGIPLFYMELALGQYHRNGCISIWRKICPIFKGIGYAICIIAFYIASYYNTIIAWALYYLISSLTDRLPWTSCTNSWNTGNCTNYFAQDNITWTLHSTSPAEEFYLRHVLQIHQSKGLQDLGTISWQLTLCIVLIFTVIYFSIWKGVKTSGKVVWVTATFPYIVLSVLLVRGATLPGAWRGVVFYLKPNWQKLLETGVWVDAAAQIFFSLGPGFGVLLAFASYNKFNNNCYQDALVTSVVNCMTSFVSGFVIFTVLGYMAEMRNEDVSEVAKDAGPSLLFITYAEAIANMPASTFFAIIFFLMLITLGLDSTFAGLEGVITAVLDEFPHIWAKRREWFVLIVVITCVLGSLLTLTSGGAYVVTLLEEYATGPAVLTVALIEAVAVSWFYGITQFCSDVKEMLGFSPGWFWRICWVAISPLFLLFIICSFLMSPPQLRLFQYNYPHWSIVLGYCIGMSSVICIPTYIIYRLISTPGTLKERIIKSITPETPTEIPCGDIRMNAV

| Compound | IC50 [1, 3] | IC50 [2] | IC50 [1] | melting point |
| --- | --- | --- | --- | --- |
| CC(C)C1CC2CCC(N2)C1COc1ccc(Cl)c(Cl)c1 [Compound of Example 10, (2R,3S)-2-(3,4-Dichloro-phenoxymethyl)-3-(2-propyl)-8-H-8-aza-bicyclo[3.2.1]octane fumaric acid salt] | 260 nM | 9 nM | – | – |
| CN1C2CCC1[C@H](COc1ccc(Cl)c(Cl)c1)[C@@H](c1ccc(Cl)c(Cl)c1)C2 (stereo partly drawn) [Compound 15a, (2R,3S)-2-(3,4-Dichloro-phenoxymethyl)-3-(3,4-dichloro-phenyl)-8-methyl-8-aza-bicyclo[3.2.1]octane] | – | 20 nM | 15 nM | – |
| CN1C2CCC1[C@H](COc1ccc(Cl)c(Cl)c1)[C@@H](c1ccccc1)C2 (stereo partly drawn) [Compound 13a, (2R,3S)-2-(3,4-Dichlorophenoxymethyl)-8-methyl-3-phenyl-8-aza-bicyclo[3.2.1]octane] | – | 0.4 nM | 540 nM | – |
| CC(C)[C@@H]1CC2CCC([C@@H]1COc1ccc(Cl)c(Cl)c1)N2C (stereo partly drawn) [Compound 16, (2R,3S)-2-(3,4-Dichloro-phenoxymethyl)-3-(2-propyl)-8-methyl-8-aza-bicyclo[3.2.1]octane fumaric acid salt] | > 1000 nM | 0.72 nM | – | – |
| CN1C2CCC1[C@H](COc1ccc(Cl)c(Cl)c1)[C@@H](c1ccc(Cl)c(Cl)c1)C2 (stereo partly drawn) (as salt: fumaric acid salt) [Compound 15a, (2R,3S)-2-(3,4-Dichloro-phenoxymethyl)-3-(3,4-dichloro-phenyl)-8-methyl-8-aza-bicyclo[3.2.1]octane] | – | – | – | 215.1 to 217.2 °C |
| CC(C)[C@@H]1CC2CCC([C@@H]1COc1ccc(Cl)c(Cl)c1)N2C (stereo partly drawn) (as salt: fumaric acid salt) [Compound 16, (2R,3S)-2-(3,4-Dichloro-phenoxymethyl)-3-(2-propyl)-8-methyl-8-aza-bicyclo[3.2.1]octane fumaric acid salt] | – | – | – | 152.3 to 154.5 °C |
| CN1C2CCC1[C@H](COc1ccc(Cl)c(Cl)c1)CC2 (some centres unmarked) (as salt: fumarate) | – | – | – | 176 to 180 °C |
